Results from patent publication US4904462A, “Multiply-tritiated steroidal-20,17-spirolactones and their use as tracer compounds” (Schering Aktiengesellschaft, priority 1984, dated 1990).

Legend:
[1] = target: T1, mineralocorticoid receptor (Rattus norvegicus, UniProt P22199); assay: Relative binding affinity, mineralocorticoid receptor, kidney cytosol, 3H-aldosterone displacement; conditions: kidney cytosol of adrenalectomized rats; 3H-aldosterone 8 nmol/l; aldosterone = 100% RBA
T1 construct: Cytosol from human uterus, rat kidneys and rat livers was prepared by homogenizing the tissues; from tissue; host or cells: kidney cytosol of adrenalectomized rats
T1 sequence (P22199 1-981): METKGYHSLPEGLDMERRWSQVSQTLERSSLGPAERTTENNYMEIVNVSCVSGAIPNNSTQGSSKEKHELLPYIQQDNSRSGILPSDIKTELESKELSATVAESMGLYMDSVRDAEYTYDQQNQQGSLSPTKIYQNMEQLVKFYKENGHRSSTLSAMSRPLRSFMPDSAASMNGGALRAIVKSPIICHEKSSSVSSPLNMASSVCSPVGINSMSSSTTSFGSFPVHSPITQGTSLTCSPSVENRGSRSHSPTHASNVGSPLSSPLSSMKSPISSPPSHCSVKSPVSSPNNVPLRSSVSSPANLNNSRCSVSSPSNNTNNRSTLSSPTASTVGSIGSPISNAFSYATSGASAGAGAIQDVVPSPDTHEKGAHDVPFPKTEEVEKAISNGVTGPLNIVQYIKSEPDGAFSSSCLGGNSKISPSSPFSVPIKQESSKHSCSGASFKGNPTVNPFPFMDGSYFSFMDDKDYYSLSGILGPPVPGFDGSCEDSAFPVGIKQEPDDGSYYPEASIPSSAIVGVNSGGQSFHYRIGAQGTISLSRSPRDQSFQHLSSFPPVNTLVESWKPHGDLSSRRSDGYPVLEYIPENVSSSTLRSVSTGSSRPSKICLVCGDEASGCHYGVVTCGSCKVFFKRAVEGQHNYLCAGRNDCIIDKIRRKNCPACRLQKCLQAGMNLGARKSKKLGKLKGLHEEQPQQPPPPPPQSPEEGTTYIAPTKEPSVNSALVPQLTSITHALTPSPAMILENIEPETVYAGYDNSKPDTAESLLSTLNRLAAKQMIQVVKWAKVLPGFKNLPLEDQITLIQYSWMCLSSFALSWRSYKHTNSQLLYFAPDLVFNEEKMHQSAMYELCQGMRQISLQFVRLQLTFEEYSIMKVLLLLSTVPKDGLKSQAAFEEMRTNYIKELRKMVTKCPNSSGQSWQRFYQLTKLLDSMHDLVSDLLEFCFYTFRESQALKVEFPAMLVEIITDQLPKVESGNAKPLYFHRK
Experimental: (§1) The relative binding affinities (RBA values) of aldosterone, prorenone as well as the compounds of this invention were determined, for the progesterone receptor, in human uterus cytosol, for the glucocorticoid receptor, in liver cytosol, and for the mineralocorticoid receptor, in the kidney cytosol of adrenalectomized rats. The relative binding affinity with respect to CBG was measured in the serum of pregnant women, diluted 1:30.
(§2) Cytosol from human uterus, rat kidneys and rat livers was prepared by homogenizing the tissues under cooling with the addition of receptor-stabilizing buffer (10 mmol/1 of KH2 PO4, 10 mmol/1 of K2 HPO4, 1.5 mmol/1 of EDTA, 3 mmol/1 of NaN3, 5 mmol/1 of monothioglycerol, 10% glycerol, pH 7.5). The homogenate was then centrifuged for 30 minutes at 105,000×g. The thus-formed supernatant centrifugation liquor corresponds to the tissue cytosol utilized for receptor testing. Then, in each case, 50 μl of a ^3 H-steroid (^3 H-R5020) for progesterone receptor testing, ^3 H-dexamethasonefor glucocorticoid receptor testing, ^3 H-aldosterone for mineralocorticoid receptor testing), dissolved in a buffer, was pipetted into test tubes (final concentration 8 nmol/1). Thereafter, the various steroids to be tested (in respectively six different concentrations: 10^-10 to 10^-5 mol/1) in 50 μl of buffer were added to the incubating tubes. Finally, 100 μl of cytosol was introduced into each tube by pipetting, and the incubation batch was thoroughly mixed and incubated overnight at 0°-4° C. Incubation was terminated by adding 0.5 ml of dextran-layered activated carbon (DCC) in a buffer. After 10 minutes of incubation under cooling, DCC was removed by centrifuging and thus the free, not receptor-bound steroid was separated from the receptor-bound steroid. The radioactivity was measured in the supernatant centrifugation liquors by means of a scintillation counter. All thus-determined values result from triple measurements. The measured dpm values were expressed in % of relative binding affinity, the RBA value referring to 50% displacement of the ^3 H-labeled ligand by its unlabeled authentic steroid (=100% RBA).

glucocorticoid receptor = target: T2, glucocorticoid receptor (Rattus norvegicus, UniProt P06536); assay: Relative binding affinity, glucocorticoid receptor, liver cytosol, 3H-dexamethasone displacement; conditions: for Relative binding affinity (RBA), Glucocorticoid Receptor: rat liver cytosol, 3H-dexamethasone 8 nmol/l, dexamethasone = 100% RBA
T2 construct: Cytosol from human uterus, rat kidneys and rat livers was prepared by homogenizing the tissues; from tissue; host or cells: rat liver cytosol
T2 sequence (P06536 1-795): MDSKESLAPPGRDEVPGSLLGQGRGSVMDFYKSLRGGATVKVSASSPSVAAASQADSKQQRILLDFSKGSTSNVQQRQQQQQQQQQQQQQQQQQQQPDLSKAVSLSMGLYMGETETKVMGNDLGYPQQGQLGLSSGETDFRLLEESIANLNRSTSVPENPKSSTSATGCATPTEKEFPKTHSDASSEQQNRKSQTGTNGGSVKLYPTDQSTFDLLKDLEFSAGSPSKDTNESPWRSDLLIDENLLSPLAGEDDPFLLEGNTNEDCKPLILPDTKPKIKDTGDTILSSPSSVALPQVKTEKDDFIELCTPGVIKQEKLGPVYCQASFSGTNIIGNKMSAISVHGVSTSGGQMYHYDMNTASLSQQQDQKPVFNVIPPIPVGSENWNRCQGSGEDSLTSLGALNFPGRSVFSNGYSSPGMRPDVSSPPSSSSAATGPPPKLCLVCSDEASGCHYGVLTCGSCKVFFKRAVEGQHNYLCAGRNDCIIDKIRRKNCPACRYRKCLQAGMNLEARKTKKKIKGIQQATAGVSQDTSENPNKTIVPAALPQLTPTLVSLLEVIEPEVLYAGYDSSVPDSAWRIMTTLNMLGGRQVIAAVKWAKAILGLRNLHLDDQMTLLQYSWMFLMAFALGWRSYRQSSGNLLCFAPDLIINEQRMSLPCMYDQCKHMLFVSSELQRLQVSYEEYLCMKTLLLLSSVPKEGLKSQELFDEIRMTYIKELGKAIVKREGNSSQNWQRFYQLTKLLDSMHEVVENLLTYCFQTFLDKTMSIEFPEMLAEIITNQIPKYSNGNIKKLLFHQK
Experimental: as §1, §2

progesterone receptor = assay: Relative binding affinity, progesterone receptor, human uterus cytosol, 3H-R5020 displacement; conditions: 3H-R5020 8 nmol/l, R5020 = 100% RBA
Experimental: as §1, §2

CBG = target: T3, CBG (Homo sapiens, UniProt P08185); assay: Relative binding affinity to CBG, serum of pregnant women, 3H-cortisol displacement; conditions: for Relative binding affinity (RBA), CBG: serum of pregnant women diluted 1:30, 3H-cortisol, cortisol = 100% RBA
T3 construct: a 1:30 dilution of the serum of pregnant women as the source of CBG; from tissue; host or cells: serum of pregnant women, diluted 1:30
T3 sequence (P08185 23-405): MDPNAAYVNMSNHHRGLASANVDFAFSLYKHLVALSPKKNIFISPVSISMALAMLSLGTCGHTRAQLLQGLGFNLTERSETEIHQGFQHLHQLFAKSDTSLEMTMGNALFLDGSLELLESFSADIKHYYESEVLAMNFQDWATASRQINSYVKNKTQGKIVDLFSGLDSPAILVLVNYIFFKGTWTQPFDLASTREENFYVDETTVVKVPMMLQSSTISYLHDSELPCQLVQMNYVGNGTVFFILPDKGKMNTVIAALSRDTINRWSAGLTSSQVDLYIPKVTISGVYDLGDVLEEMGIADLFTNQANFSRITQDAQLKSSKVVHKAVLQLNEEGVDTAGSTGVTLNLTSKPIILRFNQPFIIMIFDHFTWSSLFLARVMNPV
Experimental: as §1
As for the RBA values, for CBG an analogous procedure was followed, using ^3 H-cortisol and a 1:30 dilution of the serum of pregnant women as the source of CBG.

[2] = Metabolic stability under the conditions of the receptor test; format: in vitro ADME; conditions: in vitro receptor test conditions

| Molecule | Relative binding affinity (RBA), Mineralocorticoid Receptor [1] [%] | Relative binding affinity (RBA), Glucocorticoid Receptor (glucocorticoid receptor) [%] | Relative binding affinity (RBA), Progesterone Receptor (progesterone receptor) [%] | Relative binding affinity (RBA), CBG (CBG) [%] | relative binding affinity in rat liver cytosol (glucocorticoid receptor; with respect to dexamethasone) [%] | relative binding affinity (RBA value) to the human serum protein CBG (CBG; with respect to cortisol) [%] | metabolic stability under the conditions of the receptor test [2] |
| --- | --- | --- | --- | --- | --- | --- | --- |
| C[C@]12CCC(=O)C=C1[C@@H]1C[C@@H]1[C@H]1[C@@H]3[C@@H]4C[C@@H]4[C@@]4(CCC(=O)O4)[C@@]3(C)CC[C@@H]12 [Prorenone, reference compound] | 200 | 3 | 32 | < 0.01 |  |  |  |
| 7α-[1'-(^3 H3)ethoxy]carbonyl-15β,16β-methylene-3-oxo-17α-pregna-1,4-diene-21,17-carbolactone [Example 6] | 600 | 0.4 | 0.2 | < 0.1 |  |  |  |
| C[C@]12CCC(=O)C=C1CC[C@@H]1[C@@H]2[C@@H](O)C[C@]2(C=O)[C@@H](C(=O)CO)CC[C@@H]12 [Aldosterone, reference compound] |  | 30 | 0.2 | 6 | 30 | 6 | is metabolized under in vitro conditions of receptor testing |
| 7α-(^3 H3)methoxycarbonyl-15β,16β-methylene-3-oxo-17α-[18,19-^3 H4 ]pregn-4-ene-21,17-carbolactone [Example 4] | 400 | 0.8 | 0.5 | < 0.1 |  |  |  |
| 7α-[1'-(^3 H3)-ethoxy]carbonyl-15β,16β-methylene-3-oxo-17α-pregn-4-ene-21,17-carbolactone [Example 8] | 800 | 0.8 | 0.95 | < 0.1 |  |  |  |
| 1α,2α;15β,16β-dimethylene-7α-methoxycarbonyl-3-oxo-17α-[18,19-^3 H4 ]pregn-4-ene-21,17-carbolactone [Example 7] | 600 | 0.2 | 0.2 | < 0.1 |  |  |  |
| 6μ,7β;15β,16β-dimethylene-3-oxo-17α-[18,19-^3 H4 ]pregna-1,4-diene-21,17-carbolactone [Example 3] | 90 | 0.9 | 50 | < 0.1 |  |  |  |
